Results from patent US20240342111A1, “ISOMER-SPECIFIC NEUROPROTECTIVE EFFECT OF NATURAL RESERVATROL” (priority 2021, published 2024).

Assays:
[1] = test system: rat primary cortical neuron cultures; assay: NMDA excitotoxicity, viability by MTT assay; type: cell-based; conditions: then NMDA 500 μM for 5 minutes
Experimental: Cells were then exposed to excitotoxic NMDA (500 μM for 5 minutes) and viability was assessed using MTT assay after 24 hours. […] Rat cortical neurons (DIV 9) were treated with NMDA (50 μM for 5 minutes) and then with cis-RSV for 24 hours. Cells were then exposed to excitotoxic NMDA (500 μM for 5 minutes) and viability was assessed using MTT assay after 24 hours. […] Cell viability was assessed after 48 hours. […] Representative images (scale bar, 20 μm) for cortical neurons following neurite degeneration (MAP2—neurite marker, magenta and DAPI—nuclear marker, blue). […] Neurons were immunoassayed with anti-MAP2 antibody and quantified for neurite degeneration. The data represents mean±SEM for n=3 experiments with significance measured using Student's paired t-test.
(§1) Primary cortical neuron cultures were obtained from E18 Sprague Dawley rats' cortices, which were dissected in Hibernate E (BrainBits) and dissociated using the Neural Tissue Dissociation kit (Miltenyi Biotec). For this, minced cortices were incubated in a pre-warmed enzyme mix at 37° C. for 15 min; tissues were then triturated and strained using a 40 μm cell strainer. After washing and centrifugation, neurons were seeded in 50 μg/ml poly-D-Lysine (Sigma Aldrich) coated tissue culture plates. NBActive-1 medium (BrainBits) supplemented with 100 U/ml of Penicillin-Streptomycin (Life Technologies), 2 mM L-Glutamine (Life Technologies), and 1 X N21 supplement (R&D Systems) was used as culture medium. Control (AM4635), TyrRS (s443), PARP1 (s130207) siRNA for transfection were obtained from Invitrogen. […]
(§2) Rat cortical neurons (DIV 10-11) were exposed to different treatments after seeding 20,000 cells/well in 96-well plates. Cell viability was then assessed at 48 hours after the initial exposure to NMDA. […] The percentage of MTT reduced as measured by the difference between the absorbances at 570 nm read in a spectrophotometer (Spectramax 190R Molecular Devices, UK). The percentage of reduction of MTT was calculated comparing the difference of the absorbance at 570 of each sample. […]

Rat cortical neurons [2] = assay: DNA damage (etoposide)-induced neurotoxicity, MTT assay; type: cell-based; conditions: 5 μM etoposide 24 hours, pre-treatment 16 hours
H3 = assay: Immunoblot for histone H3 acetylation (Ac-K9-H3, Ac-K56-H3); type: cell-based, rat; conditions: 15 minutes
PARP1 [3] = assay: Auto-PARylation of PARP1 after siRNA knockdown of TyrRS; type: cell-based, rat; conditions: 15 minutes
OGG1 = assay: Immunoblot for OGG1 protein; type: cell-based, rat; conditions: 5-50 μM, 4 hours
PARP1 [4] = assay: Immunoblot of chromatin fraction for PARP1 and PAR; type: cell-based, rat; conditions: 50 μM, 1 hour
Rat cortical neurons [5] = assay: trans-RSV in combination with cis-RSV, viability by MTT assay; type: cell-based; conditions: cis-RSV 10-50 μM in combination with trans-RSV, 48 hours
Experimental: (§3) Cell viability was assessed and quantified using MTT assay.
Rat cortical neurons (DIV 10-11) were exposed to different treatments after seeding 20,000 cells/well in 96-well plates. Cell viability was then assessed at 48 hours after the initial exposure to NMDA. 3-[4,5-dimethylthiazole-2-yl]-2,5-diphenyltetrazolium bromide (MTT) assays were used to assess change in cell viability. Cultured rat cortical neurons were incubated with MTT (0.5 mg/mL). In the MTT assay, after 2 h incubation, the insoluble purple product formazan resulting from the reduction of MTT by NAD(P)H-dependent oxidoreductases present in cells with viable mitochondria was solubilized in dimethyl sulfoxide at room temperature, under agitation, and protected from light. The percentage of MTT reduced as measured by the difference between the absorbances at 570 nm read in a spectrophotometer (Spectramax 190R Molecular Devices, UK). The percentage of reduction of MTT was calculated comparing the difference of the absorbance at 570 of each sample. Results are presented as percentage of control (wells incubated with the vehicle).

[6] = test system: Rat cortical neurons transfected with PARP1 siRNA; assay: siRNA knockdown of PARP1, trans-RSV neurotoxicity, MTT assay; type: cell-based; conditions: trans-RSV 50 μM, 72 hours
Experimental: as §3, §1, §2

Structure (SMILES)	neuronal survival under NMDA excitotoxicity ([1]; cis-RSV for 24 hours)	protection from DNA damage-induced neurotoxicity (Rat cortical neurons [2])	acetylation level of H3 lysine 9 (Ac-K9-H3) (H3)	auto-PARylation of PARP1 after knockdown of TyrRS (PARP1 [3]; cis-RSV 25 μM)	OGG1 protein levels (OGG1)	PARP1 and PAR in the chromatin fraction (PARP1 [4])	trans-RSV-mediated neurotoxicity (Rat cortical neurons [5])	neuronal survival under NMDA excitotoxicity ([1]; higher dose (≥25 μM), 24 hours)	neuronal survival under NMDA excitotoxicity ([1]; low dose (≤10 μM), 24 hours)	acetylation level of H3 lysine 56 (Ac-K56-H3) (H3)	auto-PARylation of PARP1 after knockdown of TyrRS (PARP1 [3]; trans-RSV 5 μM)	effect of PARP1 siRNA knockdown on neurotoxicity [6]
Oc1ccc(/C=C\c2cc(O)cc(O)c2)cc1 [cis-RSV, cis-resveratrol]	protected against excitotoxicity in a dose-dependent manner	protects neurons from DNA damage-induced neurotoxicity	upregulated the acetylation levels of H3 lysine 9 (Ac-K9-H3)	blunted after knockdown of TyrRS	downregulated both the protein levels of OGG1 and the levels of 8-oxo-dG	downregulated PARP1 (170 kDa) and PAR modification in the chromatin fraction	rescued trans-RSV-mediated neurotoxicity	–	–	–	–	–
Oc1ccc(/C=C/c2cc(O)cc(O)c2)cc1 [trans-RSV, trans-resveratrol]	–	–	downregulated the lysine 9 and 56 acetylation levels of H3	–	–	enhanced the association (‘trapping’) of PARP1 with chromatin	–	exacerbated the N-Methyl-D-aspartate (NMDA)-mediated excitotoxicity	evoked neuroprotective effects	downregulated the lysine 9 and 56 acetylation levels of H3	blunted after knockdown of TyrRS	protected against trans-RSV-mediated neurotoxicity
